This note sets out measurements from patent US12583855B2, “RET selective inhibitor, preparation method therefor and use thereof” (SHOUYAO HOLDINGS (BEIJING) CO., LTD., priority 2019, dated 2026).

By IC50 is commonly meant the concentration at which inhibition is half-maximal. High values mean weaker potency, low ones greater potency.

One assay concerns TT cells. The assay can be described thus: TT cell proliferation activity (Cell-Titer Glo). In kind it is cell-based. To be noted: TT human thyroid carcinoma cells, 120 h. The protocol:
4. Determination of TT Cell Proliferation Activity of Compounds
TT cells, a human thyroid carcinoma cell line, were cultured in Ham's F-12K medium supplemented with 15% fetal bovine serum (FBS, purchased from Biological Industries, BI) and 1% penicillin/streptomycin double antibody (P/S, purchased from Life Technology) under conditions of 37° C. and 5% CO2. TT cells were plated in a 96-well plate (#3917 purchased from Corning) at a concentration of 5000 cells/195 μL/well the day before compound was detected. The compounds were diluted 3-fold with 100% DMSO starting from 10 mM (10 concentrations in total) after 24 h, and 2 μL of each concentration was diluted in 48 μL of Ham's F-12K medium. 5 μL of each diluted compound was added to the plated Cell suspension, the compound and cells were co-incubated in a cell incubator for 120 h (5 days), after the medium was aspirated. 25 μL of Cell-Titer Glo (G7570, purchased from Promega) reagent was added and re-incubated for 5-10 min. Fluorescence value was then read on Envision and the data were calculated using GraphPad Prism software to obtain IC50 values for inhibition of cell proliferation by the compounds.

Another assay deals with T1, RET^WT (Homo sapiens, UniProt P07949).
T1 construct: GST-RET^WT (658-1114 aa, final concentration of 0.5 nM)
T1 sequence (P07949 658-1114): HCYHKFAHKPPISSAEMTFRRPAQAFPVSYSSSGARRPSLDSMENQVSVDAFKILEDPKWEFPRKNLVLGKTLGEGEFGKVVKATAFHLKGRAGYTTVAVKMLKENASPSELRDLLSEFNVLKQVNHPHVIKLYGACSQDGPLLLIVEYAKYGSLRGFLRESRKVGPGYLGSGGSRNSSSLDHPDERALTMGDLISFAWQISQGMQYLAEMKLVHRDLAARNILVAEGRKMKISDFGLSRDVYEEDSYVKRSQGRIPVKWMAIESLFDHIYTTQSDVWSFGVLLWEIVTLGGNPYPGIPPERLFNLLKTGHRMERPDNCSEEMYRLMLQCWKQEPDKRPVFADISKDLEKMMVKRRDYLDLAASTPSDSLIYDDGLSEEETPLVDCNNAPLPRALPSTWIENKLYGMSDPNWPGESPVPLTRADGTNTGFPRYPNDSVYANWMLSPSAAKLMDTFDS
The assay can be described thus: In vitro enzymatic activity assay on RET^WT (HTRF). To be noted: GST-RET^WT (658-1114 aa) 0.5 nM, ATP 25 μM. In kind it is biochemical. The method, boiled down: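 Reaction run 2 h at 23 °C in HEPES pH 7.5 buffer with Na3VO4, MgCl2, DTT, Tween 20 and BSA; compounds tested at 7 concentrations (5-fold serial dilution in DMSO from 0.2 mM stock). HTRF detection with TK antibody and streptavidin-XL665; IC50 from curve fitting.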

Another assay has as its target VEGFR2 (Homo sapiens, UniProt P35968). As to the kind of experiment: In vitro enzymatic activity assay on VEGFR2 (HTRF). In kind it is biochemical. To be noted: GST-VEGFR2 0.1 nM, ATP 2.5 μM. The method, boiled down:
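GST-VEGFR2 (0.1 nM final) with 2.5 μM ATP and 1 μM TK peptide substrate in HEPES pH 7.5 buffer with Mg²⁺/Mn²⁺, 1.5 h at 23 °C. HTRF read-out (665/620 nm ratio) after adding TK antibody and streptavidin-XL665. IC50 from 7-point, 5-fold dilution series.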

The target of a further assay is T2, RET^V804M (Homo sapiens, UniProt P07949, V804M).
T2 construct: GST-RET^V804M (658-1114 aa, final concentration of 0.02 nM)
T2 sequence (P07949 658-1114 V804M): T1 sequence (P07949 658-1114) with V147M
The assay can be described thus: In vitro enzymatic activity assay on RET^V804M (HTRF). In kind it is biochemical. To be noted: GST-RET^V804M (658-1114 aa) 0.02 nM, ATP 1.5 μM. For orientation: TR-FRET usually uses a lanthanide donor and a delayed reading to cut background.

Each structure is given as a SMILES string. Numbering of substitutions follows the chain as printed.

Chain of VEGFR2 (P35968 20-1356): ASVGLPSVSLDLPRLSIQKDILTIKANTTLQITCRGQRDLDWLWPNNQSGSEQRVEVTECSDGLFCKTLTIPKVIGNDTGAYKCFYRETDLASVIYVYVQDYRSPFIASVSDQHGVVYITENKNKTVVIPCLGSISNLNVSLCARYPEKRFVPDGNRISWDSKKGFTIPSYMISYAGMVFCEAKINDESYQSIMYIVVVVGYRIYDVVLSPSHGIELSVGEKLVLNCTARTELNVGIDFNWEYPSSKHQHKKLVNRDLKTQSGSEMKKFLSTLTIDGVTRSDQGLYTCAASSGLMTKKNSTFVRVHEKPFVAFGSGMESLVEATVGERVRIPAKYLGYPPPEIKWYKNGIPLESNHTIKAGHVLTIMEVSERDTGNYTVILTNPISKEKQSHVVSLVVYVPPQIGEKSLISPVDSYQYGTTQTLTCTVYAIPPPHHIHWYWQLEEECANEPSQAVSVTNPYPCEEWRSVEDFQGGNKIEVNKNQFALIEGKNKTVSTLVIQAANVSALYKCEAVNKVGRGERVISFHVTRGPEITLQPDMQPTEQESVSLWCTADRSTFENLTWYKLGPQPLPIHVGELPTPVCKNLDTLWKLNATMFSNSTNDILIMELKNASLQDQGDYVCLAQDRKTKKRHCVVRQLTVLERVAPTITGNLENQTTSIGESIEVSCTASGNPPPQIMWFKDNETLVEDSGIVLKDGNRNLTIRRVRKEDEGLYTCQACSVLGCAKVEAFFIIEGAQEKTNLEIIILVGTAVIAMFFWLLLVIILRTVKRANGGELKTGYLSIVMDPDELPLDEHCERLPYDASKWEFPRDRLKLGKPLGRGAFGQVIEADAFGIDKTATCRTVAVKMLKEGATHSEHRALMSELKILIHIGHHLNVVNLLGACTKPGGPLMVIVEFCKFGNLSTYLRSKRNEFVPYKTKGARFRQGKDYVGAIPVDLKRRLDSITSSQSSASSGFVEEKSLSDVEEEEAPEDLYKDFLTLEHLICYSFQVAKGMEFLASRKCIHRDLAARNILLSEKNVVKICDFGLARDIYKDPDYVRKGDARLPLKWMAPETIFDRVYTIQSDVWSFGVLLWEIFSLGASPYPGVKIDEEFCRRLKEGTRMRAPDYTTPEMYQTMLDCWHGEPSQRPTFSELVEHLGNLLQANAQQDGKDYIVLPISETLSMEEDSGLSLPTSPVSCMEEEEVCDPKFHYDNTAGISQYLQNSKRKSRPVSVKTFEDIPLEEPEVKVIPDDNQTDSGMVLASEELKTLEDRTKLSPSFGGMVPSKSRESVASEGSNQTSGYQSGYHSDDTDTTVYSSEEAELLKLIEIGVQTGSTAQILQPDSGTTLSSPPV

Consider `Cn1cc(-c2cc(-c3cnc(N4CC5CC(C4)N5Cc4ccc(S(C)(=O)=O)cc4)cn3)c3c(C#N)cnn3c2)cn1` [Example 41, 6-(1-methyl-1Hpyrazol-4-yl)-4-(5-(6-(4-(methylsulfonyl)benzyl)-3,6-diazabicyclo[3.1.1]heptan-3-yl)pyrazin-2-yl)pyrazolo[1,5-a]pyridine-3-carbonitrile], for which the IC50 is 18.2 nM with TT cells, 0.352 nM against RET^WT, 17.3 nM at VEGFR2 and 1.04 nM against RET^V804M.
For `Cn1cc(-c2cc(-c3ccc(N4CC5CC(C4)N5Cc4ccc(S(C)(=O)=O)nc4)nc3)c3c(C#N)cnn3c2)cn1` [Example 76, 6-(1-(methyl)-1Hpyrazol-4-yl)-4-(6-(6-((6-(methylsulfonyl)pyridin-3-yl)methyl)-3,6-diazabicyclo[3.1.1]heptan-3-yl)pyridin-3-yl)pyrazolo[1,5-a]pyridine-3-carbonitrile] the same measures were 16.6 nM, 0.296 nM, 2.81 nM and 0.479 nM.
On the same counts, the results for `CC1=C(C(=O)N2CCN(c3ccc(-c4cc(-c5cnn(C)c5)cn5ncc(C#N)c45)cn3)CC2)CCC1` [Example 6, 6-(1-methyl-1Hpyrazol-4-yl)-4-(6-(4-(2-methylcyclopent-1-ene-1-carbonyl)piperazin-1-yl)pyridin-3-yl)pyrazolo[1,5-a]pyridine-3-carbonitrile] are 13.8 nM, 0.332 nM, 8.91 nM and 1.25 nM.
On the same counts, the results for `CS(=O)(=O)c1ccccc1CN1C2CC1CN(c1ccc(-c3cc(-c4cnn(C(F)F)c4)cn4ncc(C#N)c34)cn1)C2` [Example 56, 6-(1-difluoromethyl-1Hpyrazol-4-yl)-4-(6-(6-(2-(methylsulfonyl)benzyl)-3,6-diazabicyclo[3.1.1]heptan-3-yl)pyridin-3-yl)pyrazolo[1,5-a]pyridine-3-carbonitrile] are 39.9 nM, 0.08 nM, 59 nM and 1.78 nM.
As for `CS(=O)(=O)c1cccc(CN2C3CC2CN(c2ccc(-c4cc(N5CC(F)(F)C5)cn5ncc(C#N)c45)cn2)C3)c1` [Example 64, 6-(3,3-difluoroazetidin-1-yl)-4-(6-(6-(3-(methylsulfonyl)benzyl)-3,6-diazabicyclo[3.1.1]heptan-3-yl)pyridin-3-yl)pyrazolo[1,5-a]pyridine-3-carbonitrile], the IC50 with TT cells was 42.2 nM; at RET^WT, 0.493 nM; against VEGFR2, 15.5 nM; against RET^V804M, 1.71 nM.
On the same counts, the results for `CS(=O)(=O)c1cccc(CN2C3CC2CN(c2ccc(-c4cc(-c5cnn(C(F)F)c5)cn5ncc(C#N)c45)cn2)C3)c1` [Example 55, 6-(1-difluoromethyl-1Hpyrazol-4-yl)-4-(6-(6-(3-(methylsulfonyl)benzyl)-3,6-diazabicyclo[3.1.1]heptan-3-yl)pyridin-3-yl)pyrazolo[1,5-a]pyridine-3-carbonitrile] are 15.4 nM, 0.109 nM, 19.6 nM and 0.976 nM.
For `Cn1cc(-c2cc(-c3ccc(N4CCN(C(=O)C5=CCCC5)CC4)nc3)c3c(C#N)cnn3c2)cn1` [Example 2, 4-(6-(4-(cyclopent-1-ene-1-carbonyl)piperazin-1-yl)pyridin-3-yl)-6-(1-methyl-1Hpyrazol-4-yl)pyrazolo[1,5-a]pyridine-3-carbonitrile] the same measures were 26.1 nM, 0.108 nM, 13.4 nM and 0.906 nM.
For `Cn1cc(-c2cc(-c3ccc(N4CC5CC(C4)N5Cc4ccc(S(C)(=O)=O)cn4)nc3)c3c(C#N)cnn3c2)cn1` [Example 79, 6-(1-(methyl)-1Hpyrazol-4-yl)-4-(6-(6-((5-(methylsulfonyl)pyridin-2-yl)methyl)-3,6-diazabicyclo[3.1.1]heptan-3-yl)pyridin-3-yl)pyrazolo[1,5-a]pyridine-3-carbonitrile] the same measures were 21.3 nM, 0.331 nM, 5.21 nM and 0.64 nM.
With `COc1ccc(CN2CCN(c3ccc(-c4cc(N5CC(C#N)C5)cn5ncc(C#N)c45)cn3)CC2)cn1` [Example 32, 6-(3-cyanoazetidin-1-yl)-4-(6-(4-((6-methoxypyridin-3-yl)methyl)piperazin-1-yl)pyridin-3-yl)pyrazolo[1,5-a]pyridine-3-carbonitrile], the IC50 in the assay on TT cells is 48.7 nM; on RET^WT it was 0.8 nM; against VEGFR2, 29.1 nM; against RET^V804M it was 3.19 nM.
On the same counts, the results for `CS(=O)(=O)c1cccc(CN2CCN(c3ccc(-c4cc(-c5cnn(C(F)F)c5)cn5ncc(C#N)c45)cn3)CC2)c1` [Example 47, 6-(1-difluoromethyl-1Hpyrazol-4 yl)-4-(6-(4-(3-(methylsulfonyl)benzyl)piperazin-1-yl)pyridin-3-yl)pyrazolo[1,5-a]pyridine-3-carbonitrile] are 53.1 nM, 0.343 nM, 16.9 nM and 2.48 nM.
On to `CS(=O)(=O)c1ccc(CN2C3CC2CN(c2ccc(-c4cc(-c5cn[nH]c5)cn5ncc(C#N)c45)cn2)C3)cc1` [Example 53, 6-(1Hpyrazol-4-yl)-4-(6-(6-(4-(methylsulfonyl)benzyl)-3,6-diazabicyclo 13.1.11 heptan-3-yl)pyridin-3-yl)pyrazolo[1,5-a]pyridine-3-carbonitrile], for which the IC50 was 14.6 nM in the assay on TT cells, 0.072 nM against RET^WT, 2.46 nM against VEGFR2 and 0.807 nM against RET^V804M.
In the case of `CS(=O)(=O)c1ccc(CN2C3CC2CN(c2ccc(-c4cc(-c5cnn(C(F)F)c5)cn5ncc(C#N)c45)cn2)C3)cn1` [Example 77, 6-(1-(difluoromethyl)-1Hpyrazol-4-yl)-4-(6-(6-((6-(methylsulfonyl)pyridin-3-yl)methyl)-3,6-diazabicyclo[3.1.1]heptan-3-yl)pyridin-3-yl)pyrazolo[1,5-a]pyridine-3-carbonitrile], the IC50 with TT cells turned out to be 23.1 nM; against RET^WT it was 0.468 nM; against VEGFR2, 7.56 nM; against RET^V804M, 0.791 nM.
